Test results: article PMC6695681, “Hydrophobic Interactions Drive Binding between Vascular Endothelial Growth Factor-A (VEGFA) and Polyphenolic Inhibitors” (Molecules, 2019)
“And” between values parts separate entries of the source, which are not always exact repeats. Identical values can stand only once. Like-named read-outs stand apart in the source and are kept apart here. Each block holds one compound with its values, some of them ahead of it.

What was measured:
VEGF-165 [1] = molecular target: T1, VEGF-165 (Homo sapiens, UniProt P15692); assay: Surface plasmon resonance binding of polyphenols to immobilised VEGF165; details: for koff: read-out: dissociation rate constant kd; for dissociation rate at 20 °C compared with 37 °C: 20 °C vs 37 °C, Figure 3B;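 for all read-outs here: running buffer PBST with 1% DMSO, sensorgrams double referenced against a VEGF-free reference cell and blank injections, kinetics fitted to a 1:1 Langmuir binding model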
T1 construct: purchased ReliaTech GmbH (Wolfenbüttel, Germany)
T1 sequence (P15692 27-191 isoform P15692-4 limits assumed): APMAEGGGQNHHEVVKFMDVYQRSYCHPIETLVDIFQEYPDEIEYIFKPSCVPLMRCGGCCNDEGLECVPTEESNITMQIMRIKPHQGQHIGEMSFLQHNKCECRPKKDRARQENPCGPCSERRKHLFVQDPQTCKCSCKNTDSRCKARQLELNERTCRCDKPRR

[2] = test system: VEGF-dependent VEGFR2 activation in HUVEC cells; set-up: method as in Cerezo et al. [1]; details: ref Cerezo et al. [1], read-out: IC50 (concentration causing 50% inhibition of VEGF activation in HUVEC cells), cited from earlier work
VEGF-165 [3] = molecular target: T1, VEGF-165; assay: Far-UV circular dichroism of VEGF secondary structure upon binding EGCG
Protocol: Circular dichroism (CD) in the far UV range (180–260 nm) was used to determine whether the secondary structure of VEGF changed upon binding EGCG. Circular dichroism spectra were measured for a fixed concentration of VEGF-165 (0.22 nmoles in 50 µL) with increasing amounts of EGCG (0, 1.36, 5.45 and 10.91 nmoles) and the spectra obtained are shown in Figure 4. Analysis of the spectra indicated the predominant features in the secondary structure of VEGF165 were random coil (unordered) and β-sheet, followed by smaller percentages of α-helix and turns. After adding EGCG at a mole ratio of 1:50 VEGF:EGCG, the VEGF secondary structure was altered with increases of 65% and 33% in α-helix and turns respectively, a reduction in the percentage of β-strands of 88%, and only a 3% reduction in the predominant unordered structure.
Circular Dichroism (CD) spectra were recorded using a Jasco J-715 spectropolarimeter (Easton, MD, USA) over a wavelength range of 185–260 nm in PBS solvent with 1% ethanol, using a quartz demountable CD cell with a path length of 0.1 mm. Averages of three runs of the protein spectra were collected a 37 °C at a scan speed of 20 nm/min and a band width of 1.0 nm. To account for any background effect the protein in buffer alone, the EGCG molecule in buffer alone, and the buffer alone were also measured. After background correction the spectra were converted to units of delta epsilon. Dichroweb analysis server http://dichroweb.cryst.bbk.ac.uk was used to analyse and estimate on line the secondary structure contents.

VEGF = molecular target: T2, VEGF (Homo sapiens, UniProt P15692); assay: SDS-page gels of VEGF treated with polyphenol, reducing and non-reducing conditions
T2 construct: purchased ReliaTech GmbH (Wolfenbüttel, Germany)
T2 sequence (P15692 27-191 isoform P15692-4 limits assumed): T1 sequence (P15692 27-191 isoform P15692-4 limits assumed)
Text: Binding occurs when intermolecular forces are established between VEGF and the phenolic ligand. […] Therefore, the interactions between VEGF and inhibitor polyphenols are likely to be non-covalent in nature. These forces could be the result of various interactions between the protein, the ligand, and the environment and are likely to be predominantly based on electrostatic (H bonding) and hydrophobic forces.
Figure 2 SDS-page gels of control (VEGF) and treatments (VEGF and apple procyanidin fraction dp4 or EGCG under (A) reducing conditions and (B) Non-reducing conditions.

[4] = PBST, 37 °C, read-out: association rate constant ka
[5] = PBST, 37 °C, read-out: equilibrium constant KD
[6] = PBST, 37 °C (control runs of Table 2)

Structure (SMILES): O=C(O)c1cc(O)c(O)c(O)c1 [Gallic acid]
kon (VEGF-165 [1]; [4]): 166 M⁻¹ s⁻¹
koff (VEGF-165 [1]; PBST, 37 °C): 0.000391 s⁻¹
Kd (VEGF-165 [1]; [5]): 5520 nM

Structure (SMILES): Oc1cc(O)c2c(c1)OC(c1ccc(O)c(O)c1)C(O)C2c1c(O)cc(O)c2c1OC(c1ccc(O)c(O)c1)C(O)C2c1c(O)cc(O)c2c1OC(c1ccc(O)c(O)c1)C(O)C2c1c(O)cc(O)c2c1OC(c1ccc(O)c(O)c1)C(O)C2c1c(O)cc(O)c2c1OC(c1ccc(O)c(O)c1)C(O)C2c1c(O)cc(O)c2c1OC(c1ccc(O)c(O)c1)C(O)C2c1c(O)cc(O)c2c1OC(c1ccc(O)c(O)c1)C(O)C2c1c(O)cc(O)c2c1OC(c1ccc(O)c(O)c1)C(O)C2c1c(O)cc(O)c2c1OC(c1ccc(O)c(O)c1)C(O)C2 (stereo not shown) [Procyanidin Dp9]
dissociation rate at 20 °C compared with 37 °C (VEGF-165 [1]): higher at 20 °C than at 37 °C
Kd (VEGF-165 [1]; [5]): 341 nM

Structure (SMILES): O=c1c(O)c(-c2ccc(O)c(O)c2)oc2cc(O)c(O)c(O)c12 [Quercetagetin]
kon (VEGF-165 [1]; [4]): 858 M⁻¹ s⁻¹
koff (VEGF-165 [1]; PBST, 37 °C): 0.000826 s⁻¹
Kd (VEGF-165 [1]; [5]): 934 nM
IC50 [2]: 100 nM

Structure (SMILES): O=C(O[C@@H]1Cc2c(O)cc(O)cc2O[C@@H]1c1cc(O)c(O)c(O)c1)c1cc(O)c(O)c(O)c1 [Epigallocatechin gallate (EGCG), Epigallocatechin gallate]
dissociation rate at 20 °C compared with 37 °C (VEGF-165 [1]): higher at 20 °C than at 37 °C
kd (VEGF-165 [1]; PBST + 0.5 M NaCl, 37 °C): 0.00037 ± 4e-05 s⁻¹
Kd (VEGF-165 [1]; PBST + 0.5 M NaCl, 37 °C, read-out: KD): 60 nM
kon (VEGF-165 [1]; PBST + 0.5 M NaCl, 37 °C, read-out: ka): 5180 ± 92 M⁻¹ s⁻¹
kd (VEGF-165 [1]; PBST + 1 M NaCl, 37 °C): 0.00033 ± 4e-05 s⁻¹
Kd (VEGF-165 [1]; PBST + 1 M NaCl, 37 °C, read-out: KD): 35 nM
kon (VEGF-165 [1]; PBST + 1 M NaCl, 37 °C, read-out: ka): 6500 ± 260 M⁻¹ s⁻¹
kd (VEGF-165 [1]; PBST + 1 M urea, 37 °C): 0.00036 ± 2.1e-05 s⁻¹
Kd (VEGF-165 [1]; PBST + 1 M urea, 37 °C, read-out: KD): 71 nM
kon (VEGF-165 [1]; PBST + 1 M urea, 37 °C, read-out: ka): 5160 ± 100 M⁻¹ s⁻¹
kd (VEGF-165 [1]; PBST + 10% ethanol, 37 °C): 0.0017 ± 7e-05 s⁻¹
Kd (VEGF-165 [1]; PBST + 10% ethanol, 37 °C, read-out: KD): 810 nM
kon (VEGF-165 [1]; PBST + 10% ethanol, 37 °C, read-out: ka): 2460 ± 60 M⁻¹ s⁻¹
kd (VEGF-165 [1]; PBST + 10 M ethylene glycol, 37 °C): 0.00026 ± 5.2e-05 s⁻¹
Kd (VEGF-165 [1]; PBST + 10 M ethylene glycol, 37 °C, read-out: KD): 420 nM
kon (VEGF-165 [1]; PBST + 10 M ethylene glycol, 37 °C, read-out: ka): 796 ± 45 M⁻¹ s⁻¹
kd (VEGF-165 [1]; PBST + 30% ethanol, 37 °C): 0.0002 ± 5e-05 s⁻¹
Kd (VEGF-165 [1]; PBST + 30% ethanol, 37 °C, read-out: KD): 470 nM
kon (VEGF-165 [1]; PBST + 30% ethanol, 37 °C, read-out: ka): 482 ± 21 M⁻¹ s⁻¹
ka (VEGF-165 [1]; [6]): 5184 ± 64 M⁻¹ s⁻¹ and 6052 ± 64 M⁻¹ s⁻¹
kd (VEGF-165 [1]; [6]): 0.00068 ± 2.9e-06 s⁻¹ and 0.00088 ± 5.2e-05 s⁻¹ and 0.00072 ± 5e-05 s⁻¹
Kd (VEGF-165 [1]; PBST, 37 °C (control runs of Table 2), read-out: KD): 110 nM and 170 nM and 140 nM
kon (VEGF-165 [1]; PBST, 37 °C (control runs of Table 2), read-out: ka): 6147 ± 52 M⁻¹ s⁻¹
kon (VEGF-165 [1]; [4]): 6300 M⁻¹ s⁻¹
koff (VEGF-165 [1]; PBST, 37 °C): 0.000625 s⁻¹
Kd (VEGF-165 [1]; [5]): 112 nM
position of the negative band in CD far UV spectra (VEGF-165 [3]; EGCG mixed with VEGF, 201 nm for VEGF alone): 211 nm
time taken by conformational changes in VEGF (VEGF-165 [3]; after mixing with EGCG): less than 90 s
increase in turns of VEGF secondary structure (VEGF-165 [3]; mole ratio 1:50 VEGF:EGCG): 33%
increase in α-helix of VEGF secondary structure (VEGF-165 [3]; mole ratio 1:50 VEGF:EGCG): 65%
reduction in the percentage of β-strands of VEGF (VEGF-165 [3]; mole ratio 1:50 VEGF:EGCG): 88%
reduction in the predominant unordered structure of VEGF (VEGF-165 [3]; mole ratio 1:50 VEGF:EGCG): 3%
change in migration of treated VEGF on SDS page gels (VEGF): no change in migration
IC50 ([2]; listed as EGCG): 88 nM
IC50 [2]: 90 nM

Structure (SMILES): O=c1c(O)c(-c2cc(O)c(O)c(O)c2)oc2cc(O)cc(O)c12 [Myricetin]
Kd (VEGF-165 [1]; [5]): 4460 nM
IC50 ([2]; listed as myricetin): 121 nM
IC50 [2]: 120 nM

Structure (SMILES): Oc1cc(O)c2c(c1)OC(c1ccc(O)c(O)c1)C(O)C2c1c(O)cc(O)c2c1OC(c1ccc(O)c(O)c1)C(O)C2c1c(O)cc(O)c2c1OC(c1ccc(O)c(O)c1)C(O)C2 (stereo not shown) [Procyanidin Dp3]
dissociation rate at 20 °C compared with 37 °C (VEGF-165 [1]): higher at 20 °C than at 37 °C
kon (VEGF-165 [1]; [4]): 2910 M⁻¹ s⁻¹
koff (VEGF-165 [1]; PBST, 37 °C): 0.00093 s⁻¹
Kd (VEGF-165 [1]; [5]): 351 nM
IC50 [2]: 780 nM

Second part, led by results:

kon (VEGF-165 [1]; [4]): 8240 M⁻¹ s⁻¹
koff (VEGF-165 [1]; PBST, 37 °C): 0.000633 s⁻¹
Kd (VEGF-165 [1]; [5]): 35 nM and 34.8 nM
Structure (SMILES): O=C(O[C@@H]1Cc2c(O)cc(O)cc2O[C@@H]1c1ccc(O)c(O)c1)c1cc(O)c(O)c(O)c1 [Epicatechin gallate (ECG), Epicatechin gallate]
IC50 [2]: 160 nM

kon (VEGF-165 [1]; [4]): 323 M⁻¹ s⁻¹
koff (VEGF-165 [1]; PBST, 37 °C): 0.000696 s⁻¹
Kd (VEGF-165 [1]; [5]): 2710 nM
Structure (SMILES): Oc1cc(O)c2c(c1)O[C@H](c1ccc(O)c(O)c1)[C@H](O)C2 [(-) Epicatechin]

kon (VEGF-165 [1]; [4]): 131 M⁻¹ s⁻¹
koff (VEGF-165 [1]; PBST, 37 °C): 0.00399 s⁻¹
Kd (VEGF-165 [1]; [5]): 25000 nM and 24600 nM
Structure (SMILES): Oc1cc(O)c2c(c1)O[C@H](c1ccc(O)c(O)c1)[C@@H](O)C2 [(+) Catechin]
IC50 [2]: 215000 nM

kon (VEGF-165 [1]; [4]): 548 M⁻¹ s⁻¹
koff (VEGF-165 [1]; PBST, 37 °C): 0.001 s⁻¹
Kd (VEGF-165 [1]; [5]): 637 nM
Structure (SMILES): Oc1cc(O)c2c(c1)OC(c1ccc(O)c(O)c1)C(O)C2c1c(O)cc(O)c2c1OC(c1ccc(O)c(O)c1)C(O)C2 (stereo not shown) [Procyanidin Dp2]
IC50 [2]: 52600 nM
